Read-outs that look alike come from different tables or passages of the source.
Columns and labels:
Format in all cases: in vivo
Phytophthora infestans = settings: tomatoes, preventive spray, evaluated 3 days after inoculation
Alternaria solani = test: Alternaria Test (Tomatoes)/Preventive; settings: preventive spray, 100 ppm a.i., evaluated 3 days after inoculation
Venturia inaequalis = test: Venturia Test (Apples)/Preventive; settings: preventive spray, evaluated 10 days after inoculation

Q: With O=C(NCc1ncc(C(F)(F)F)cc1Cl)c1c(Cl)cccc1Cl [F143 fluopicolide, fluopicolide] as the compound, how does the “Efficacy in % found” value (Phytophthora infestans; Table A1, 5 ppm a.i.) read?
A: 32%

Q: And the “Efficacy in % found” value (Alternaria solani)?
A: 0%

Q: N#Cc1c(Cl)c(Cl)c(Cl)c(C#N)c1Cl [F155 chlorothalonil, chlorothalonil] was tested. Which “Efficacy in % found” value (Venturia inaequalis; 10 ppm a.i.) did it give?
A: 43%

Q: With mancozeb [F174 mancozeb] as the compound, how does the “Efficacy in % found” value (Phytophthora infestans; Table A2, 10 ppm a.i.) read?
A: 15%

Q: What about the “Efficacy in % found” value (Venturia inaequalis; 20 ppm a.i.) of the same compound?
A: 24%

Q: With propineb [F180 propineb] as the compound, how does the “Efficacy in % found” value (Phytophthora infestans; Table A2, 10 ppm a.i.) read?
A: 23%

Reference: patent US10028509B2 (priority 2012, dated 2018)
